Laboratory results published in patent US6692743B1, “Apoptosis of naive human NK cells by crosslinking of their FcγRIIIa molecules with a rat IgG2b (LO-CD2a/BTI-322) or its IgG1 humanized monoclonal antibody” (Universite Catholique de Louvain, priority 1998, dated 2004).
Numbered stars: 1 amine (or outer) side, 2 acyl side, 3 side chain; on linkers, the order of the positions; unused ones are H or OH. Bridge positions count the residues as written; N and C are the ends. Square brackets hold non-standard residues; d marks the D form. Peptide text beside a SMILES is read from it. I, II: the chains in the order shown. Actinocin(9to1) = Cc1c2oc3c(C)ccc(C(=O)[*:1])c3nc-2c(C(=O)[*:2])c(N)c1=O; NMeV = CN[C@H](C(=O)O)C(C)C; Sar = CNCC(=O)O

tested on: freshly isolated NK cells; experiment: Effect of different inhibitors on LO-CD2a mediated NK apoptosis (PI, flow cytometry); format: cell-based, human; conditions: 3 h pre-incubation with inhibitor, then 3 hours with LO-CD2a; 5 donors
Experimental: Effect of different inhibitors on LO-CD2a mediated NK apoptosis. 100 ul of freshly isolated NK cells (10^6/ml) were pre-incubated for 3 h at 37° C. in a 96 well plate with EGTA (20 mM), staurosporin (250 nM), quinacrine ([…]), cyclosporin A ([…]), FK506 ([…]), wortmannin (500 ng/ml), concanamycin A ([…]), cytochalasine D (1 mg/ml), actinomycin) (500 ng/ml final concentration), NOK-1 (25 mg/ml) or medium alone. After incubation for 3 hours with LO-CD2a ([…] final concentration) propidium iodide was added and cell mortality was analysed by flow cytometry.

Q: For O=C(O)CN(CCOCCOCCN(CC(=O)O)CC(=O)O)CC(=O)O [EGTA], which “inhibition of LO-CD2a mediated NK apoptosis (in words)” value (from here on “inhibition”) is on record?
A: completely inhibited

Q: How did the “inhibition” value turn out when CCN(CC)CCCC(C)Nc1c2ccc(Cl)cc2nc2ccc(OC)cc12 (centres unmarked) [quinacrine, Quinacrine] was run?
A: completely inhibited

Q: How did the “inhibition” value turn out when Cyclosporin A was run?
A: partially inhibited

Q: Which “inhibition” value does the source give for Cc1c2oc3c(C)ccc(C(=O)N[C@@H]4C(=O)N[C@H](C(C)C)C(=O)N5CCC[C@H]5C(=O)N(C)CC(=O)N(C)[C@@H](C(C)C)C(=O)O[C@@H]4C)c3nc-2c(C(=O)N[C@@H]2C(=O)N[C@H](C(C)C)C(=O)N3CCC[C@H]3C(=O)N(C)CC(=O)N(C)[C@@H](C(C)C)C(=O)O[C@@H]2C)c(N)c1=O [actinomycin D, Actinomycin D] (I: T[dV]P[Sar][NMeV] / II: T[dV]P[Sar][NMeV]; ester I:1-I:C, II:1-II:C; linker I:N-II:N via Actinocin(9to1)) here?
A: did not have any blocking effect

Q: For C/C=C/[C@H]1O[C@@](O)([C@@H](C)[C@H](O)[C@H](C)[C@H]2OC(=O)/C(OC)=C/C(C)=C/[C@@H](C)[C@@H](O)[C@@H](CC)[C@@H](O)[C@H](C)C/C(C)=C/C=C/[C@@H]2OC)C[C@@H](O[C@H]2C[C@@H](O)[C@H](OC(N)=O)[C@@H](C)O2)[C@@H]1C [concanamycin A, Concanamycin A], which “inhibition” value is on record?
A: failed to inhibit apoptosis
